test system: Glomerella lagenarium (Colletotrichum lagenarium); experiment: Fungicidal activity against Glomerella lagenarium (Colletotrichum lagenarium) liquid culture / cucumber / preventative (anthracnose); assay type: cell-based; conditions: Colletotrichum orbiculare; 20 ppm in the applied formulation; liquid culture (PDB), growth inhibition measured photometrically after 3 to 4 days; compared to untreated control; read-out: disease control
Method: Mycelia fragments or conidia suspensions of a fungus prepared either freshly from liquid cultures of the fungus or from cryogenic storage, are directly mixed into nutrient broth. DMSO solutions of the test compound (max. 10 mg/ml) are diluted with 0.025% Tween20 by a factor of 50 and 10 μl of this solution is pipetted into a microtiter plate (96-well format). The nutrient broth containing the fungal spores/mycelia fragments is then added to give an end concentration of the tested compound. The test plates are incubated in the dark at 24° C. and 96% relative humidity. The inhibition of fungal growth is determined photometrically after 2 to 7 days, depending on the pathosystem, and percent antifungal activity relative to the untreated check is calculated.
Fungicidal activity against Glomerella lagenarium (Colletotrichum lagenarium) liquid culture/cucumber/Preventative (Anthracnose)
Conidia of the fungus from cryogenic storage are directly mixed into nutrient broth (PDB—potato dextrose broth). After placing a (DMSO) solution of test compound into a microtiter plate (96-well format), the nutrient broth containing the fungal spores is added.
The following compounds at 20 ppm in the applied formulation give at least 80% disease control in this test when compared to untreated control under the same conditions, which show extensive disease development.

Row | Compound | inhibition of growth at 20 ppm [%]
1 | COc1ccccc1C(=O)N(Cc1ccc(-c2noc(C(F)(F)F)n2)cc1)OC [Compound 1.7, N,2-dimethoxy-N-[[4-[5-(trifluoromethyl)-1,2,4-oxadiazol-3-yl]phenyl]methyl]-benzamide] | ≥ 80
2 | CON(Cc1ccc(-c2noc(C(F)(F)F)n2)cc1)C(=O)c1ccc(Cl)cc1Cl [Compound 1.9, 2,4-dichloro-N-methoxy-N-[[4-[5-(trifluoromethyl)-1,2,4-oxadiazol-3-yl]phenyl]methyl]-benzamide] | ≥ 80
3 | CON(Cc1ccc(-c2noc(C(F)(F)F)n2)cc1)C(=O)CCc1ccc(Cl)cc1 [Compound 1.18, 3-(4-chlorophenyl)-N-methoxy-N-[[4-[5-(trifluoromethyl)-1,2,4-oxadiazol-3-yl]phenyl]methyl]-propanamide] | ≥ 80
4 | CON(Cc1ccc(-c2noc(C(F)(F)F)n2)cc1)C(=O)c1cc2c(cc1Br)OCO2 [Compound 1.55, 6-bromo-N-methoxy-N-[[4-[5-(trifluoromethyl)-1,2,4-oxadiazol-3-yl]phenyl]methyl]-1,3-benzoxlioxole-5-carboxamide] | ≥ 80
5 | CCC1(C(=O)N(Cc2ccc(-c3noc(C(F)(F)F)n3)cc2)OC)C(C)C1(Cl)Cl (stereo not drawn) [Compound 1.61, 2,2-dichloro-1-ethyl-N-methoxy-3-methyl-N-[[4-[5-(trifluoromethyl)-1,2,4-oxadiazol-3-yl]phenyl]methyl]-cyclopropane-carboxamide] | ≥ 80
6 | CON(Cc1ccc(-c2noc(C(F)(F)F)n2)cc1)C(=O)Cc1ccc(C(F)(F)F)cc1 [Compound 1.68, N-methoxy-N-[[4-[5-(trifluoromethyl)-1,2,4-oxadiazol-3-yl]phenyl]methyl]-2-[4-(trifluoromethyl)-phenyl]acetamide] | ≥ 80
7 | COc1cccc(C2(C(=O)N(Cc3ccc(-c4noc(C(F)(F)F)n4)cc3)OC)CC2)c1 [Compound 1.72, N-methoxy-1-(3-methoxyphenyl)-N-[[4-[5-(trifluoromethyl)-1,2,4-oxadiazol-3-yl]phenyl]methyl]-cyclopropane-carboxamide] | ≥ 80
8 | COc1ccc(C2(C(=O)N(Cc3ccc(-c4noc(C(F)(F)F)n4)cc3)OC)CC2)cc1 [Compound 1.74, N-methoxy-1-(4-methoxyphenyl)-N-[[4-[5-(trifluoromethyl)-1,2,4-oxadiazol-3-yl]phenyl]methyl]-cyclopropane-carboxamide] | ≥ 80
9 | CCCC(C)(C)C(=O)N(Cc1ccc(-c2noc(C(F)(F)F)n2)cc1)C1CC1 [Compound 1.85, N-cyclopropyl-2,2-dimethyl-N-[[4-[5-(trifluoromethyl)-1,2,4-oxadiazol-3-yl]phenyl]methyl]-pentanamide] | ≥ 80
10 | O=C(c1cccc(C(F)(F)F)c1)N(Cc1ccc(-c2noc(C(F)(F)F)n2)cc1)C1CC1 [Compound 1.88, N-cyclopropyl-3-(trifluoromethyl)-N-[[4-[5-(trifluoromethyl)-1,2,4-oxadiazol-3-yl]phenyl]methyl]-benzamide] | ≥ 80
11 | O=C(Cc1ccccc1Cl)N(Cc1ccc(-c2noc(C(F)(F)F)n2)cc1)C1CC1 [Compound 1.94, 2-(2-chlorophenyl)-N-cyclopropyl-N-[[4-[5-(trifluoromethyl)-1,2,4-oxadiazol-3-yl]phenyl]methyl]-acetamide] | ≥ 80
12 | O=C(N(Cc1ccc(-c2noc(C(F)(F)F)n2)cc1)C1CC1)C1(c2ccccc2)CC1 [Compound 1.96, N-cyclopropyl-1-phenyl-N-[[4-[5-(trifluoromethyl)-1,2,4-oxadiazol-3-yl]phenyl]methyl]-cyclopropane-carboxamide] | ≥ 80
13 | O=C(C1CC1c1ccccc1)N(Cc1ccc(-c2noc(C(F)(F)F)n2)cc1)C1CC1 (stereo not drawn) [Compound 1.98, N-cyclopropyl-2-phenyl-N-[[4-[5-(trifluoromethyl)-1,2,4-oxadiazol-3-yl]phenyl]methyl]-cyclopropane-carboxamide] | ≥ 80
14 | CC1(C(=O)N(Cc2ccc(-c3noc(C(F)(F)F)n3)cc2)C2CC2)CCCCC1 [Compound 1.108, N-cyclopropyl-1-methyl-N-[[4-[5-(trifluoromethyl)-1,2,4-oxadiazol-3-yl]phenyl]methyl]-cyclohexane-carboxamide] | ≥ 80
15 | CC(C)(C)CC(=O)N(Cc1ccc(-c2noc(C(F)(F)F)n2)cc1)C1CC1 [Compound 1.116, N-cyclopropy 1-3,3-dimethyl-N-[[4-[5-(trifluoromethyl)-1,2,4-oxadiazol-3-yl]phenyl]methyl]-butanamide] | ≥ 80
16 | CCC(CC(=O)N(Cc1ccc(-c2noc(C(F)(F)F)n2)cc1)C1CC1)C(F)(F)F (stereo not drawn) [Compound 1.148, N-cyclopropyl-3-(trifluoromethyl)-N-[[4-[5-(trifluoromethyl)-1,2,4-oxadiazol-3-yl]phenyl]methyl]-pentanamide] | ≥ 80
17 | C#CCN(Cc1ccc(-c2noc(C(F)(F)F)n2)cc1)C(=O)Cc1ccccc1Cl [Compound 1.163, 2-(2-chlorophenyl)-N-prop-2-ynyl-N-[[4-[5-(trifluoromethyl)-1,2,4-oxadiazol-3-yl]phenyl]methyl]-acetamide] | ≥ 80
18 | C#CCN(Cc1ccc(-c2noc(C(F)(F)F)n2)cc1)C(=O)C1(C)CC1(Cl)Cl (stereo not drawn) [Compound 1.174, 2,2-dichloro-1-methyl-N-prop-2-ynyl-N-[[4-[5-(trifluoromethyl)-1,2,4-oxadiazol-3-yl]phenyl]methyl]-cyclopropane-carboxamide] | ≥ 80
19 | C#CCN(Cc1ccc(-c2noc(C(F)(F)F)n2)cc1)C(=O)Cc1ccccc1OC [Compound 1.179, 2-(2-methoxyphenyl)-N-prop-2-ynyl-N-[[4-[5-(trifluoromethyl)-1,2,4-oxadiazol-3-yl]phenyl]methyl]-acetamide] | ≥ 80
20 | O=C(N(Cc1ccc(-c2noc(C(F)(F)F)n2)cc1)CC1CC1)C1(C(F)(F)F)CC1 [Compound 1.203, N-(cyclopropylmethyl)-1-(trifluoromethyl)-N-[[4-[5-(trifluoromethyl)-1,2,4-oxadiazol-3-yl]phenyl]methyl]-cyclopropane-carboxamide] | ≥ 80
21 | C=CCCC(=O)N(Cc1ccc(-c2noc(C(F)(F)F)n2)cc1)CC1CC1 [Compound 1.208, N-(cyclopropylmethyl)-N-[[4-[5-(trifluoromethyl)-1,2,4-oxadiazol-3-yl]phenyl]methyl]-pent-4-enamide] | ≥ 80
22 | O=C(CC1CC1)N(Cc1ccc(-c2noc(C(F)(F)F)n2)cc1)CC1CC1 [Compound 1.211, 2-cyclopropyl-N-(cyclopropylmethyl)-N-[[4-[5-(trifluoromethyl)-1,2,4-oxadiazol-3-yl]phenyl]methyl]-acetamide] | ≥ 80
23 | O=C(CCC(F)(F)F)N(Cc1ccc(-c2noc(C(F)(F)F)n2)cc1)CC1CC1 [Compound 1.213, N-(cyclopropylmethyl)-4,4,4-trifluoro-N-[[4-[5-(trifluoromethyl)-1,2,4-oxadiazol-3-yl]phenyl]methyl]-butanamide] | ≥ 80
24 | O=C(Cc1ccccc1)N(Cc1ccc(-c2noc(C(F)(F)F)n2)cc1)CC1CC1 [Compound 1.228, N-(cyclopropylmethyl)-2-phenyl-N-[[4-[5-(trifluoromethyl)-1,2,4-oxadiazol-3-yl]phenyl]methyl]-acetamide] | ≥ 80
25 | CC1(C)CC1C(=O)N(Cc1ccc(-c2noc(C(F)(F)F)n2)cc1)CC1CC1 (stereo not drawn) [Compound 1.231, N-(cyclopropylmethyl)-2,2-dimethyl-N-[[4-[5-(trifluoromethyl)-1,2,4-oxadiazol-3-yl]phenyl]methyl]-cyclopropane-carboxamide] | ≥ 80
26 | O=C(C1CC1(Cl)Cl)N(Cc1ccc(-c2noc(C(F)(F)F)n2)cc1)CC1CC1 (stereo not drawn) [Compound 1.232, 2.2-dichloro-N-(cyclopropylmethyl)-N-[[4-[5-(trifluoromethyl)-1,2,4-oxadiazol-3-yl]phenyl]methyl]-cyclopropane-carboxamide] | ≥ 80
27 | N#Cc1ccc(CC(=O)N(Cc2ccc(-c3noc(C(F)(F)F)n3)cc2)CC2CC2)cc1 [Compound 1.236, 2-(4-cyanophenyl)-N-(cyclopropylmethyl)-N-[[4-[5-(trifluoromethyl)-1,2,4-oxadiazol-3-yl]phenyl]methyl]-acetamide] | ≥ 80
28 | C#CCC(NS(=O)(=O)CC)C(=O)N(Cc1ccc(-c2noc(C(F)(F)F)n2)cc1)CC1CC1 (stereo not drawn) [Compound 1.239, N-(cyclopropylmethyl)-2-(ethylsulfonylamino)-N-[[4-[5-(trifluoromethyl)-1,2,4-oxadiazol-3-yl]phenyl]methyl]-pent-4-ynamide] | ≥ 80
29 | O=C(CC1CC1(F)F)N(Cc1ccc(-c2noc(C(F)(F)F)n2)cc1)CC1CC1 (stereo not drawn) [Compound 1.240, N-(cyclopropylmethyl)-2-(2,2-difluorocyclopropyl)-N-[[4-[5-(trifluoromethyl)-1,2,4-oxadiazol-3-yl]phenyl]methyl]-acetamide] | ≥ 80
30 | CC=C(C)C(=O)N(OC)C(C)c1ccc(-c2noc(C(F)(F)F)n2)cc1 (stereo not drawn) [Compound 1.255, N-methoxy-2-methyl-N-[1-[4-[5-(trifluoromethyl)-1,2,4-oxadiazol-3-yl]phenyl]ethyl]but-2-enamide] | ≥ 80
